This data set has as its system Fibroblast. The experiment in a line: Incucyte cell viability with human fibroblast. Further: filed as whole numbers so only -1 and 0 and 1 occur. The format is toxicity, cell-based. As to conditions: 10 µM, compound concentration 10 uM.
[1] abbreviates: 0 h, replicate number 1, timepoint 0 hours.
The mark [2] stands for this setting: 6 h, replicate number 1, timepoint 6 hours.
Setting [3] is: 12 h, replicate number 1, timepoint 12 hours.
Where [4] appears, read: 18 h, replicate number 1, timepoint 18 hours.
Where [5] appears, read: 24 h, replicate number 1, timepoint 24 hours.

The results in this text go back to ChEMBL document CHEMBL4689842, “EUbOPEN Chemogenomics Library wave 1” (2021).

As to `CCCSc1nc(N[C@@H]2C[C@H]2c2ccc(F)c(F)c2)c2nnn([C@@H]3C[C@H](OCCO)[C@@H](O)[C@H]3O)c2n1` [TICAGRELOR], the “Growth Rate” value stood at 0 under setting [1]; 0 under setting [2]; 0 under setting [3]; 0 under setting [4]; 0 under setting [5].

For `CC(C)(C)NC[C@H](O)COc1nsnc1N1CCOCC1` [TIMOLOL], the “Growth Rate” value reads like this: under setting [1], 0; (0 h, replicate number 2, timepoint 0 hours) 1; under setting [2], 1; (6 h, replicate number 2, timepoint 6 hours) 0; under setting [3], 1; (12 h, replicate number 2, timepoint 12 hours) 0. Besides, the “Growth Rate” value is 1 under setting [4]; 0 (18 h, replicate number 2, timepoint 18 hours); 1 under setting [5]; 0 (24 h, replicate number 2, timepoint 24 hours).
